Test results from PMC11042244 (RSC Medicinal Chemistry, 2024).

Assays:
[1] = test system: ROS produced by PMA-stimulated murine bone marrow leukocytes; experiment: Antiradical activity assay: L-012-enhanced chemiluminescence of ROS production; type: cell-based, murine (BALB/c mice)
Method: (§1) All animal use was conducted in accordance with a protocol approved by the Institutional Animal Care and Use Committee (IACUC) at Montana State University (protocol approval number 2022-45-IA). Bone marrow leukocytes were flushed from tibias and femurs of BALB/c mice (2-month old; 25 g body weight) or CD-1 female mice (2.5-month old; 30 g body weight) with HBSS, filtered through a 70 μm nylon cell strainer (BD Biosciences, Franklin Lakes, NJ) to remove cell clumps and bone particles.
To evaluate antiradical activity, murine bone marrow leukocytes from BALB/c mice were resuspended at 10^6 cells per ml in HBSS containing Ca^2+ and Mg^2+ (HBSS^+) and supplemented with 40 μM L-012 (Wako Chemicals, Richmond, VA),[51] since L-012-enhanced chemiluminescence represents a sensitive and reliable method for detecting ROS.[52] The cells (100 μl) were then aliquoted into wells of 96-well flat-bottom white microtiter plates containing test compounds diluted in 100 μl of HBSS^+ (final DMSO concentration of 1%). The cells were activated by adding 200 nM PMA (Sigma Chemical Co., St. Louis, MO), and luminescence was monitored for 60 min (2 min intervals) at 37 °C using a Fluoroskan Ascent FL microtiter plate reader (Thermo Electron, Waltham, MA). The compound concentration that inhibited ROS production by 50% of the PMA-stimulated response was determined by graphing the percentage inhibition of the 60 min integrated luminescence versus the logarithm of concentration of test compound. Each curve was determined using five to seven compound concentrations. Curve fitting and calculation of median effective concentration values (IC50) were performed by nonlinear regression analysis of the dose–response curves generated using Prism 10 (GraphPad Software, Inc., San Diego, CA, USA).

[2] = test system: murine bone marrow leukocytes; experiment: Cytotoxicity assay (CellTiter-Glo luminescent cell viability); type: cell-based, murine (CD-1 mice); conditions: for Cyto-toxicity IC50: 90 min incubation, mean ± SD of three experiments, N.A. = no cytotoxicity at the highest concentration tested (25 μM); for IC50: Mus musculus, Leukocyte, read-out: Cyto-toxicity IC50
Method: as §1
The cytotoxicity of compounds for murine bone marrow leukocytes was analyzed using a CellTiter-Glo Luminescent Cell Viability Assay kit (Promega), according to the manufacturer's protocol. Briefly, bone marrow leukocytes from CD-1 mice were incubated at a density of 10^4 cells per well with different concentrations of compounds (the final concentration of DMSO was 1%) for 90 min at 37 °C and 5% CO2. Following treatment, the substrate was added to the cells, and the samples were analyzed with a FlexStation 3 microplate reader (Molecular Devices, San Jose, CA), USA.

[3] = target: T1, HNE (human neutrophil elastase) (Homo sapiens, UniProt P08246); experiment: HNE inhibition assay (fluorogenic substrate, enzymatic); type: biochemical; conditions: mean ± SD of three independent experiments, N.A. = no inhibitory activity at the highest concentration tested (50 μM)
T1 construct: purchased Calbiochem
T1 sequence (P08246 30-247 limits assumed): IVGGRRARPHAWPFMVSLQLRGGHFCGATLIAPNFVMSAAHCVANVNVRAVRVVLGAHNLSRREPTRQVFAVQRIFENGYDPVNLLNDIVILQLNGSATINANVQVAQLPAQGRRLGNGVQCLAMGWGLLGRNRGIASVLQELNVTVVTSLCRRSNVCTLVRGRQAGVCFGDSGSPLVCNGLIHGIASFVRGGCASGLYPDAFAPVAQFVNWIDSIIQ
Method: All compounds were dissolved in 100% DMSO at 5 mM stock concentrations and then subsequently diluted in 100% DMSO at various concentrations appropriate for use in the dose–response assays. […] The HNE inhibition assay was performed in black flat-bottom 96-well microtiter plates. Briefly, a buffer solution containing 200 mM Tris-HCl, pH 7.5, 0.01% bovine serum albumin, and 0.05% Tween-20 and 20 mU mL^−1 of HNE (Calbiochem) was added to wells containing different concentrations of each compound. The reaction was initiated by addition of 25 μM elastase substrate (N-methylsuccinyl-Ala-Ala-Pro-Val-7-amino-4-methylcoumarin, Calbiochem) in a final reaction volume of 100 μL per well. Kinetic measurements were obtained every 30 s for 10 min at 25 °C using a Fluoroskan Ascent FL fluorescence microplate reader (Thermo Electron, MA) with excitation and emission wavelengths of 355 and 460 nm, respectively. For all compounds tested, the concentration of inhibitor that caused 50% inhibition of the enzymatic reaction (IC50) was calculated by plotting % inhibition versus logarithm of inhibitor concentration (at least six points).[50]

[4] = inhibition of ROS production, 200 nM PMA, 60 min integrated luminescence, mean ± SD of three experiments, N.A. = no inhibitory activity at the highest concentration tested (50 μM)

Structure (SMILES): CCOC(=O)c1ccc(-n2[se]c3ccccc3c2=O)cc1 [3b]
- IC50 ([1]; Mus musculus, Leukocyte, 1 h): 1.8 ± 0.2 µM
- Cyto-toxicity IC50 [2]: no cytotoxicity

Structure (SMILES): O=C(NC1CC1)c1ccc(-n2[se]c3ccccc3c2=O)cc1 [3c, N-Cyclopropyl-4-(3-oxobenzo[d][1,2]selenazol-2(3H)-yl)benzamide]
- IC50 ([1]; Mus musculus, Leukocyte, 1 h): 9.7 ± 1.4 µM
- IC50 [2]: 8 ± 1.9 µM

Structure (SMILES): Cc1cccc(NC(=O)c2ccc(-n3[se]c4ccccc4c3=O)cc2)c1 [3d, 4-(3-Oxobenzo[d][1,2]selenazol-2(3H)-yl)-N-(m-tolyl)benzamide]
- Antiradical activity IC50 [1, 4]: inactivity
- Cyto-toxicity IC50 [2]: no cytotoxicity

Structure (SMILES): CC(=O)n1[se]c2ccccc2c1=O [4a, 2-Acetylbenzo[d][1,2]selenazol-3(2H)-one]
- IC50 [3]: 7.7 ± 2.3 µM
- IC50 ([1]; Mus musculus, Leukocyte, 1 h): 0.42 ± 0.06 µM
- IC50 [2]: 10.8 ± 2.4 µM

Structure (SMILES): CCC(=O)n1[se]c2ccccc2c1=O [4b, 2-Propionylbenzo[d][1,2]selenazol-3(2H)-one]
- IC50 [3]: 2.6 ± 0.2 µM
- IC50 ([1]; Mus musculus, Leukocyte, 1 h): 0.18 ± 0.05 µM
- IC50 [2]: 8.5 ± 1.8 µM

Structure (SMILES): CCCC(=O)n1[se]c2ccccc2c1=O [4c, 2-Butyrylbenzo[d][1,2]selenazol-3(2H)-one]
- IC50 [3]: 2.4 ± 0.4 µM
- IC50 ([1]; Mus musculus, Leukocyte, 1 h): 0.33 ± 0.08 µM
- IC50 [2]: 4.9 ± 0.6 µM

Structure (SMILES): CC(C)C(=O)n1[se]c2ccccc2c1=O [4d, 2-Isobutyrylbenzo[d][1,2]selenazol-3(2H)-one]
- IC50 [3]: 1.2 ± 0.1 µM
- IC50 ([1]; Mus musculus, Leukocyte, 1 h): 0.6 ± 0.2 µM
- IC50 [2]: 9.6 ± 2.2 µM

Structure (SMILES): CC(C)(C)C(=O)n1[se]c2ccccc2c1=O [4e, 2-Pivaloylbenzo[d][1,2]selenazol-3(2H)-one]
- IC50 [3]: 1.8 ± 0.1 µM
- IC50 ([1]; Mus musculus, Leukocyte, 1 h): 2.6 ± 0.4 µM
- IC50 [2]: 13.6 ± 3.1 µM

Structure (SMILES): CCCCC(=O)n1[se]c2ccccc2c1=O [4f, 2-pentanoylbenzo[d][1,2]selenazol-3(2H)-one]
- IC50 [3]: 0.9 ± 0.2 µM
- IC50 ([1]; Mus musculus, Leukocyte, 1 h): < 1 µM
- IC50 [1, 4]: 0.7 ± 0.2 µM
- IC50 [2]: 4.2 ± 0.9 µM

Structure (SMILES): CCCCCC(=O)n1[se]c2ccccc2c1=O [4g, 2-Hexanoylbenzo[d][1,2]selenazol-3(2H)-one]
- IC50 [3]: 3 ± 0.4 µM
- Antiradical activity IC50 [1, 4]: inactivity
- Cyto-toxicity IC50 [2]: no cytotoxicity

Structure (SMILES): CCOC(=O)n1[se]c2ccccc2c1=O [4h, Ethyl 3-oxobenzo[d][1,2]selenazole-2(3H)-carboxylate]
- HNE inhibition IC50 [3]: completely inactive
- IC50 ([1]; Mus musculus, Leukocyte, 1 h): 2.5 ± 0.4 µM
- IC50 [2]: 15.2 ± 3.2 µM

Structure (SMILES): CCOC(=O)CC(=O)n1[se]c2ccccc2c1=O [4i, Ethyl 3-oxo-3-(3-oxobenzo[d][1,2]selenazol-2(3H)-yl)propanoate]
- IC50 ([1]; Mus musculus, Leukocyte, 1 h): 1 ± 0.3 µM
- IC50 [2]: 8.1 ± 1.7 µM

Structure (SMILES): O=C(C1CC1)n1[se]c2ccccc2c1=O [4j, 2-(Cyclopropanecarbonyl)benzo[d][1,2]selenazol-3(2H)-one]
- IC50 [3]: 1.4 ± 0.1 µM
- IC50 [2]: 10.4 ± 2.4 µM

Structure (SMILES): O=C(C1CCCC1)n1[se]c2ccccc2c1=O [4k, 2-(Cyclopentanecarbonyl)benzo[d][1,2]selenazol-3(2H)-one]
- IC50 [3]: 2.8 ± 0.2 µM
- IC50 ([1]; Mus musculus, Leukocyte, 1 h): 1.4 ± 0.2 µM
- IC50 [2]: 11.8 ± 2.8 µM

Structure (SMILES): O=C(C1CCCCC1)n1[se]c2ccccc2c1=O [4l, 2-(Cyclohexanecarbonyl)benzo[d][1,2]selenazol-3(2H)-one]
- IC50 [3]: 24.1 ± 4.8 µM
- IC50 ([1]; Mus musculus, Leukocyte, 1 h): 1.1 ± 0.1 µM
- IC50 [2]: 12.4 ± 3.4 µM

Structure (SMILES): O=C(c1ccccc1)n1[se]c2ccccc2c1=O [4m, 2-Benzoylbenzo[d][1,2]selenazol-3(2H)-one]
- IC50 [3]: 2.3 ± 0.4 µM

Structure (SMILES): Cc1cccc(C(=O)n2[se]c3ccccc3c2=O)c1 [4n, 2-(3-Methylbenzoyl)benzo[d][1,2]selenazol-3(2H)-one]
- IC50 [3]: 10.9 ± 2.1 µM
- IC50 ([1]; Mus musculus, Leukocyte, 1 h): 7 ± 1.3 µM
- Cyto-toxicity IC50 [2]: no cytotoxicity

Structure (SMILES): COc1ccc(C(=O)n2[se]c3ccccc3c2=O)cc1 [4o, 2-(4-Methoxybenzoyl)benzo[d][1,2]selenazol-3(2H)-one]
- IC50 [3]: 8.7 ± 1.2 µM

Structure (SMILES): O=C(c1ccsc1)n1[se]c2ccccc2c1=O [4p, 2-(Thiophene-3-carbonyl)benzo[d][1,2]selenazol-3(2H)-one]
- IC50 ([1]; Mus musculus, Leukocyte, 1 h): 14.3 ± 2.7 µM
- Cyto-toxicity IC50 [2]: no cytotoxicity

Structure (SMILES): O=c1c2ccccc2[se]n1-c1ccccc1 [Ebselen (3a), 2-phenyl-1,2-benzoselenazol-3(2H)-one, reference compound]
- HNE inhibition IC50 [3]: completely inactive
- IC50 [2]: 9.5 ± 2.5 µM

Structure (SMILES): CC(C)(C)C(=O)Oc1ccc(S(=O)(=O)Nc2ccccc2C(=O)NCC(=O)O)cc1 [Sivelestat, reference compound]
- Cyto-toxicity IC50 [2]: no cytotoxicity

Structure (SMILES): CC(C)(C)C(=O)Oc1ccc(S(=O)(=O)n2[se]c3ccccc3c2=O)cc1 [compound 6, 4-[(3-Oxobenzo[d][1,2]selenazol-2(3H)-yl)sulfonyl]phenyl pivalate]
- IC50 [3]: 2.7 ± 0.5 µM
- IC50 ([1]; Mus musculus, Leukocyte, 1 h): 6.4 ± 0.4 µM
- Cyto-toxicity IC50 [2]: no cytotoxicity

Structure (SMILES): O=C(NC1CC1)n1[se]c2ccccc2c1=O [compound 8, N-Cyclopropyl-3-oxobenzo[d][1,2]selenazole-2(3H)-carboxamide]
- HNE inhibition IC50 [3]: completely inactive
- IC50 ([1]; Mus musculus, Leukocyte, 1 h): 0.9 ± 0.3 µM
- IC50 [2]: 5.9 ± 1.6 µM
